Measured values published in US20230085307A1, “PYRIDAZINONE COMPOUND AND HERBICIDE” (NISSAN CHEMICAL CORPORATION, priority 2019, published 2023).

Assays:
[1] = system: blackgrass; test: Test Example 5: herbicidal effect by foliage application, plastic box (Table 20, symbol J); format: in vivo, blackgrass (Alopecurus myosuroides); conditions: foliage application, 320 g/ha, evaluated three weeks after application
Outline: (§1)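 Sow seeds spot-wise in sterilized diluvial soil; cover with ~1.5 cm soil. Grow 14 days in greenhouse, 25° C. to 30° C. Spray foliage with emulsion diluted to predetermined amount. Rate effect after 3 weeks.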

[2] = system: oval-leafed pondweed; test: Test Example 1: herbicidal activity, application before weed generation under submerged conditions (Table 16, symbol C); format: in vivo, oval-leafed pondweed (Monochoria vaginalis); conditions: 320 g/ha applied herbicide
Outline: (§2)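 Emulsion formulation, water-diluted to set dose, was put onto the flooded surface (4 cm depth, alluvial soil) the same day weeds were sown and 2.5-leaf rice transplanted. After 3 weeks at 25-30 °C under glass, each species was rated 0 (≤5% kill) to 5 (≥90% kill).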

[3] = system: velvetleaf; test: Test Example 5: herbicidal effect by foliage application, plastic box (Table 20, symbol M); format: in vivo, velvetleaf (Abutilon theophrasti); conditions: foliage application, 320 g/ha, evaluated three weeks after application
Outline: as §1

[4] = system: chickweed; test: Test Example 4: herbicidal effect by soil treatment (Table 19, symbol P); format: in vivo, common chickweed (Stellaria media); conditions: amount of applied herbicide 320 g/ha
Outline: (§3)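 Soil-surface application: an emulsion agent diluted with water to the predetermined dose is sprayed uniformly over seeds lying under roughly 1.5 cm of sterilized diluvial soil. Boxes stay in a greenhouse at 25° C. to 30° C. Three weeks later, each species is graded on previously defined criteria.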

[5] = system: southern crabgrass; test: Test Example 5: herbicidal effect by foliage application, plastic box (Table 20, symbol F); format: in vivo, southern crabgrass (Digitaria ciliaris); conditions: foliage application, 320 g/ha, evaluated three weeks after application
Outline: as §1

[6] = system: barnyard grass; test: Test Example 5: herbicidal effect by foliage application, plastic box (Table 20, symbol H); format: in vivo, barnyard grass (Echinochloa crus-galli); conditions: foliage application, 320 g/ha, evaluated three weeks after application
Outline: as §1

[7] = system: Italian ryegrass; test: Test Example 5: herbicidal effect by foliage application, plastic box (Table 20, symbol K); format: in vivo, Italian ryegrass (Lolium multiflorum); conditions: foliage application, 320 g/ha, evaluated three weeks after application
Outline: as §1

[8] = system: velvetleaf; test: Test Example 4: herbicidal effect by soil treatment (Table 19, symbol M); format: in vivo, velvetleaf (Abutilon theophrasti); conditions: amount of applied herbicide 320 g/ha
Outline: as §3

[9] = system: blackgrass; test: Test Example 4: herbicidal effect by soil treatment (Table 19, symbol J); format: in vivo, blackgrass (Alopecurus myosuroides); conditions: amount of applied herbicide 320 g/ha
Outline: as §3

[10] = system: late watergrass; test: Test Example 1: herbicidal activity, application before weed generation under submerged conditions (Table 16, symbol A); format: in vivo, late watergrass (Echinochloa oryzicola); conditions: 320 g/ha applied herbicide
Outline: as §2

[11] = system: rice flat sedge; test: Test Example 3: herbicidal effect by foliage application, Wagner pot (Table 18, symbol E); format: in vivo, rice flat sedge (Cyperus iria); conditions: amount of applied herbicide 320 g/ha
Outline: (§4)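 Plants were sown in alluvial soil held under 0.1–0.5 cm standing water and grown 14 days in a greenhouse at 25–30 °C. An emulsifiable formulation, water-diluted to the set dose, was then sprayed onto the foliage, and effects were scored three weeks later using previously defined criteria.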

[12] = system: persian speedwell; test: Test Example 4: herbicidal effect by soil treatment (Table 19, symbol R); format: in vivo, Persian speedwell (Veronica persica); conditions: amount of applied herbicide 320 g/ha
Outline: as §3

[13] = system: chickweed; test: Test Example 5: herbicidal effect by foliage application, plastic box (Table 20, symbol P); format: in vivo, common chickweed (Stellaria media); conditions: foliage application, 320 g/ha, evaluated three weeks after application
Outline: as §1

[14] = system: Chinese sprangletop; test: Test Example 3: herbicidal effect by foliage application, Wagner pot (Table 18, symbol D); format: in vivo, chinese sprangletop (Leptochloa chinensis); conditions: amount of applied herbicide 320 g/ha
Outline: as §4

[15] = system: green foxtail; test: Test Example 5: herbicidal effect by foliage application, plastic box (Table 20, symbol G); format: in vivo, green foxtail (Setaria viridis); conditions: foliage application, 320 g/ha, evaluated three weeks after application
Outline: as §1

[16] = system: windgrass; test: Test Example 4: herbicidal effect by soil treatment (Table 19, symbol L); format: in vivo, windgrass (Apera spica-venti); conditions: amount of applied herbicide 320 g/ha
Outline: as §3

[17] = system: lambsquarters; test: Test Example 5: herbicidal effect by foliage application, plastic box (Table 20, symbol O); format: in vivo, lambsquarters (Chenopodium album); conditions: foliage application, 320 g/ha, evaluated three weeks after application
Outline: as §1

[18] = system: barnyard grass; test: Test Example 4: herbicidal effect by soil treatment (Table 19, symbol H); format: in vivo, barnyard grass (Echinochloa crus-galli); conditions: amount of applied herbicide 320 g/ha
Outline: as §3

[19] = system: green foxtail; test: Test Example 4: herbicidal effect by soil treatment (Table 19, symbol G); format: in vivo, green foxtail (Setaria viridis); conditions: amount of applied herbicide 320 g/ha
Outline: as §3

[20] = system: wild oat; test: Test Example 5: herbicidal effect by foliage application, plastic box (Table 20, symbol I); format: in vivo, wild oat (Avena fatua); conditions: foliage application, 320 g/ha, evaluated three weeks after application
Outline: as §1

[21] = system: barnyard grass; test: Test Example 3: herbicidal effect by foliage application, Wagner pot (Table 18, symbol H); format: in vivo, barnyard grass (Echinochloa crus-galli); conditions: amount of applied herbicide 320 g/ha
Outline: as §4

[22] = system: persian speedwell; test: Test Example 5: herbicidal effect by foliage application, plastic box (Table 20, symbol R); format: in vivo, Persian speedwell (Veronica persica); conditions: foliage application, 320 g/ha, evaluated three weeks after application
Outline: as §1

[23] = system: redroot pigweed; test: Test Example 5: herbicidal effect by foliage application, plastic box (Table 20, symbol N); format: in vivo, redroot pigweed (Amaranthus retroflexus); conditions: foliage application, 320 g/ha, evaluated three weeks after application
Outline: as §1

[24] = system: southern crabgrass; test: Test Example 4: herbicidal effect by soil treatment (Table 19, symbol F); format: in vivo, southern crabgrass (Digitaria ciliaris); conditions: amount of applied herbicide 320 g/ha
Outline: as §3

[25] = system: windgrass; test: Test Example 5: herbicidal effect by foliage application, plastic box (Table 20, symbol L); format: in vivo, windgrass (Apera spica-venti); conditions: foliage application, 320 g/ha, evaluated three weeks after application
Outline: as §1

[26] = system: Japanese bulrush; test: Test Example 1: herbicidal activity, application before weed generation under submerged conditions (Table 16, symbol B); format: in vivo, Japanese bulrush (Schoenoplectus juncoides); conditions: 320 g/ha applied herbicide
Outline: as §2

[27] = system: Italian ryegrass; test: Test Example 4: herbicidal effect by soil treatment (Table 19, symbol K); format: in vivo, Italian ryegrass (Lolium multiflorum); conditions: amount of applied herbicide 320 g/ha
Outline: as §3

[28] = system: wild oat; test: Test Example 4: herbicidal effect by soil treatment (Table 19, symbol I); format: in vivo, wild oat (Avena fatua); conditions: amount of applied herbicide 320 g/ha
Outline: as §3

[29] = system: redroot pigweed; test: Test Example 4: herbicidal effect by soil treatment (Table 19, symbol N); format: in vivo, redroot pigweed (Amaranthus retroflexus); conditions: amount of applied herbicide 320 g/ha
Outline: as §3

[30] = system: lambsquarters; test: Test Example 4: herbicidal effect by soil treatment (Table 19, symbol O); format: in vivo, lambsquarters (Chenopodium album); conditions: amount of applied herbicide 320 g/ha
Outline: as §3

In the case of `Cc1nn(C)c(=O)c(-c2c(-c3cccc(F)c3)sc3ccc(F)cc23)c1O` [2-201], the “herbicidal effect on J: blackgrass (criteria 0-5)” value [1] is reported as 0 (Herbicidal rate of 5% or less (almost no effect)), the “Herbicidal effect on C: oval-leafed pondweed (grade 0-5)” value [2] is reported as 0 (Herbicidal rate of 5% or less (almost no effect)) and the “herbicidal effect on M: velvetleaf (criteria 0-5)” value [3] is reported as 5 (Herbicidal rate of 90% or more (almost completely withered)). The “P: chickweed, herbicidal effect rating” value [4] was 3 (Herbicidal rate of 40% or more and less than 70%), the “herbicidal effect on F: southern crabgrass (criteria 0-5)” value [5] was 4 (Herbicidal rate of 70% or more and less than 90%) and the “herbicidal effect on H: barnyard grass (criteria 0-5)” value [6] was 5 (Herbicidal rate of 90% or more (almost completely withered)). The “herbicidal effect on K: Italian ryegrass (criteria 0-5)” value [7] was 4 (Herbicidal rate of 70% or more and less than 90%), the “M: velvetleaf, herbicidal effect rating” value [8] was 4 (Herbicidal rate of 70% or more and less than 90%) and the “J: blackgrass, herbicidal effect rating” value [9] was 0 (Herbicidal rate of 5% or less (almost no effect)). For the same compound, the “Herbicidal effect on A: late watergrass (grade 0-5)” value [10] was 2 (Herbicidal rate of 20% or more and less than 40%), the “herbicidal effect on E: rice flat sedge” value [11] was 5 (Herbicidal rate of 90% or more (almost completely withered)) and the “R: persian speedwell, herbicidal effect rating” value [12] was 0 (Herbicidal rate of 5% or less (almost no effect)). The “herbicidal effect on P: chickweed (criteria 0-5)” value [13] was 5 (Herbicidal rate of 90% or more (almost completely withered)), the “herbicidal effect on D: Chinese sprangletop” value [14] was 4 (Herbicidal rate of 70% or more and less than 90%) and the “herbicidal effect on G: green foxtail (criteria 0-5)” value [15] was 4 (Herbicidal rate of 70% or more and less than 90%). The “L: windgrass, herbicidal effect rating” value [16] was 0 (Herbicidal rate of 5% or less (almost no effect)), the “herbicidal effect on O: lambsquarters (criteria 0-5)” value [17] was 5 (Herbicidal rate of 90% or more (almost completely withered)) and the “H: barnyard grass, herbicidal effect rating” value [18] was 4 (Herbicidal rate of 70% or more and less than 90%). For the same compound, the “G: green foxtail, herbicidal effect rating” value [19] was 3 (Herbicidal rate of 40% or more and less than 70%), the “herbicidal effect on I: wild oat (criteria 0-5)” value [20] was 0 (Herbicidal rate of 5% or less (almost no effect)) and the “herbicidal effect on H: barnyard grass” value [21] was 5 (Herbicidal rate of 90% or more (almost completely withered)). For the same compound, the “herbicidal effect on R: persian speedwell (criteria 0-5)” value [22] was 5 (Herbicidal rate of 90% or more (almost completely withered)), the “herbicidal effect on N: redroot pigweed (criteria 0-5)” value [23] was 5 (Herbicidal rate of 90% or more (almost completely withered)) and the “F: southern crabgrass, herbicidal effect rating” value [24] was 3 (Herbicidal rate of 40% or more and less than 70%). For the same compound, the “herbicidal effect on L: windgrass (criteria 0-5)” value [25] was 4 (Herbicidal rate of 70% or more and less than 90%), the “Herbicidal effect on B: Japanese bulrush (grade 0-5)” value [26] was 2 (Herbicidal rate of 20% or more and less than 40%) and the “K: Italian ryegrass, herbicidal effect rating” value [27] was 2 (Herbicidal rate of 20% or more and less than 40%). For the same compound, the “I: wild oat, herbicidal effect rating” value [28] was 0 (Herbicidal rate of 5% or less (almost no effect)), the “N: redroot pigweed, herbicidal effect rating” value [29] was 5 (Herbicidal rate of 90% or more (almost completely withered)) and the “O: lambsquarters, herbicidal effect rating” value [30] was 4 (Herbicidal rate of 70% or more and less than 90%).
